Measured values: patent publication US20150322033A1, “ANTIBACTERIAL AGENT” (priority 2012, published 2015)
Values after ≈ are worked out from the molar mass of the structure shown. Where two headings read alike, the source gives them in different places.

Columns and labels:
[1] = test system: levofloxacin-susceptible Staphylococcus aureus strain MS5935-1; test: Emergence frequency of levofloxacin-resistant Staphylococcus aureus on agar plate medium; format: cell-based; conditions: for Emergence frequency of levofloxacin resistance mutation (mutations/genera): FALCOR
Text: Emergence frequency of levofloxacin-resistant Staphylococcus aureus was examined in the presence or absence of apigenin by using a levofloxacin-susceptible Staphylococcus aureus strain according to the following method.
The levofloxacin-susceptible Staphylococcus aureus strain MS5935-1 (strain in which the 80th serine residue from the amino terminus of the wild-type topoisomerase IV encoded by parC is mutated with phenylalanine residue, see, Hiramatsu K., Igarashi M., Morimoto Y, Baba T., Umekita M., Akamatsu Y., Int. J. Antimicrob. Agents, 2012 June; 39(6), 478-85) was cultured overnight at 37° C. with shaking in 4 mL of TBS (produced by Dickinson). After completion of the culture, the cells were suspended in fresh TBS, and the cell suspension was adjusted to have an absorbance of 0.3 measured at 578 nm. Then, the cell suspension was diluted 10,000 times with TBS. This diluted cell suspension was inoculated (0.1 mL each) into ten test tubes containing 4 mL each of TBS, and preculture was carried out overnight at 37° C.
Levofloxacin was dissolved in sterilized water at a concentration of 40 mg/L. This solution of levofloxacin was added on plates in a volume of 1 mL/plate, and 9 mL of M-H (Mueller Hinton) Agar (produced by Becton, Dickinson and Company) was added to each plate. Five of such plates were prepared. […]
Number of the colonies formed on each agar plate medium after the culture of 2 days was counted. The emergence frequency of levofloxacin-resistant Staphylococcus aureus was calculated according to the following equation using the number of colonies and the number of bacterial cells inoculated onto each agar plate medium (CFU, colony forming unit). Further, from the calculated emergence frequency of the levofloxacin-resistant Staphylococcus aureus, emergence frequency of levofloxacin resistance mutation and 95% confidence interval (CI range) were calculated by using FALCOR (Fluctuation AnaLysis CalculatOR, http://www.keshaysingh.org/protocols/FALCOR.html, see, Hall B. M. et al., Bioinformatics., 2009, 25(12), 1564-5). […]

[2] = test system: S. aureus FDA209P (ATCC 6538P); test: microbe, parasite or virus in culture; format: cell-based, Staphylococcus aureus; conditions: Staphylococcus aureus
In short: (§1)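 Overnight TSB cultures at 37 °C adjusted to A578 0.3, diluted 500-fold in CAMHB and mixed 1:1 with compound in CAMHB; static overnight incubation at 37 °C. MIC reported in mg/L; Mu50 NR-1 also tested in some runs.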

S. aureus Mu50 = test: microbe, parasite or virus in culture; format: cell-based, Staphylococcus aureus; conditions: for MIC ratio: (MIC value for S. aureus FDA209P)/(MIC value for S. aureus Mu50); for MIC: Staphylococcus aureus
In short: as §1

[3] = Example 2, Table 12, read-out: MIC (mg/L) S. aureus FDA209P
[4] = Example 3, Table 13, read-out: MIC (mg/L) FDA209P (w, w)
[5] = MU50, read-out: MIC (mg/L) S. aureus Mu50, Example 2, Table 12
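For MIC ratio in this document: ratio is FDA209P MIC divided by Mu50 MIC.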

| SMILES | Emergence frequency of levofloxacin resistance mutation (mutations/genera) ([1]; agar plate medium with LVFX 4 mg/L, apigenin 0) | MIC [2, 3] [mg/L] | MIC [2, 4] [mg/L] | MIC ratio (S. aureus Mu50) | MIC (S. aureus Mu50; [5]) [mg/L] | Emergence frequency of levofloxacin resistance mutation, medium with levofloxacin and apigenin / medium with levofloxacin ([1]; LVFX 4 mg/L, apigenin 32 mg/L) | Emergence frequency of levofloxacin resistance mutation (mutations/genera) ([1]; agar plate medium with LVFX 4 mg/L and apigenin 32 mg/L) | MIC ([2]; Example 1, Tables 1 to 10, read-out: MIC (mg/L) FDA209P) [mg/L] | MIC ratio (S. aureus Mu50; listed as apigenin) | MIC (S. aureus Mu50; MU50, read-out: MIC (mg/L) Mu50, Example 1, Tables 1 to 10) [mg/L] |
| --- | --- | --- | --- | --- | --- | --- | --- | --- | --- | --- |
| C[C@H]1COc2c(N3CCN(C)CC3)c(F)cc3c(=O)c(C(=O)O)cn1c23 [Levofloxacin, levofloxacin, reference compound] | 1.45 × 10^−9 mutations/genera | 0.125 (≈ 0.346 µM) | 0.125 (≈ 0.346 µM) | 0.016 | 8 (≈ 22.1 µM) |  |  |  |  |  |
| O=c1cc(-c2ccc(O)cc2)oc2cc(O)cc(O)c12 [No. 7, 4′,5,7-Trihydroxyflavone] |  | > 128 | > 128 | >32 | 4 (≈ 14.8 µM) | 1/29 | 0.05 × 10^−9 mutations/genera | > 128 | ≥ 32 | 4 (≈ 14.8 µM) |
